The target of the assay is Vascular endothelial growth factor receptor 2 (Homo sapiens, UniProt P35968). The assay is described as follows: Inhibitory concentration against human Vascular endothelial growth factor receptor 2.
Chain of Vascular endothelial growth factor receptor 2 (P35968 whole entry): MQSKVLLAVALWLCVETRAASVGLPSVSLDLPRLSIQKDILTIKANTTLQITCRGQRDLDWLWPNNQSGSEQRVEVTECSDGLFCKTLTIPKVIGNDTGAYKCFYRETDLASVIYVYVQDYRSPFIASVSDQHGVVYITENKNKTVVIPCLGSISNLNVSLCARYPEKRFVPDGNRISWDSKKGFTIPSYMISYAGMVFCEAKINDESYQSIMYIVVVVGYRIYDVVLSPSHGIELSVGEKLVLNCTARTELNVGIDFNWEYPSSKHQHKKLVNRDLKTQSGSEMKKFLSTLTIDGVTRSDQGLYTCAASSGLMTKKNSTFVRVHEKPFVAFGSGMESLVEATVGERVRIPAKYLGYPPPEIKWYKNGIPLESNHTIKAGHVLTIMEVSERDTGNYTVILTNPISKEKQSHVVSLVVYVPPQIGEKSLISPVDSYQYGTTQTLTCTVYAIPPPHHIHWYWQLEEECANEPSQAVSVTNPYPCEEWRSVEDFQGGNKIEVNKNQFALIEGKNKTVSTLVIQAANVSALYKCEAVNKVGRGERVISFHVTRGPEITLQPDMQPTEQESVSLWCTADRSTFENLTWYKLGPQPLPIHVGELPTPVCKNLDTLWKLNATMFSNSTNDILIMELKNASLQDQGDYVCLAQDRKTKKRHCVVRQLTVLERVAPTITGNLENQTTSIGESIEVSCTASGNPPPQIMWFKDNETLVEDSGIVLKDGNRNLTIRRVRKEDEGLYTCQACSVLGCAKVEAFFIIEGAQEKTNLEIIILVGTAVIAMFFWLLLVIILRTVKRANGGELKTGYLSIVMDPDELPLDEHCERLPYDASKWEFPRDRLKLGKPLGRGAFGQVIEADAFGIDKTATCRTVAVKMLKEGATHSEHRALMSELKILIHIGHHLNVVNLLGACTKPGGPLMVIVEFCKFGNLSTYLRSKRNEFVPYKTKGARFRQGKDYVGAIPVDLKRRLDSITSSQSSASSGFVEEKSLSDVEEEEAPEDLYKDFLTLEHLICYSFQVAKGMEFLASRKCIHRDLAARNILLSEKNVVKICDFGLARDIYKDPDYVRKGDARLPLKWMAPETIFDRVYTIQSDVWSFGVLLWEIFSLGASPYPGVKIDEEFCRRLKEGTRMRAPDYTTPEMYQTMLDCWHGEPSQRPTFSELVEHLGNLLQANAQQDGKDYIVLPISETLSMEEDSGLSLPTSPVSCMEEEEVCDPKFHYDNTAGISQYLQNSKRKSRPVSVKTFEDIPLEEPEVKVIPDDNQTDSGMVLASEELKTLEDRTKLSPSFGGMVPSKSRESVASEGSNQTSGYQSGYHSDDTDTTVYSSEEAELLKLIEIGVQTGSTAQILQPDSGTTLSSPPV

In general, IC50 refers to the concentration needed to halve the response being measured. High values mean a need for much substance, low ones inhibition by little substance. `C/C(=C\C=C\CC(C)C(CC(=O)O)O[C@H]1O[C@@H](CO)[C@H](O)[C@H](O)[C@@H]1O)C(=O)O` (stereo partly specified) showed an IC50 of 5 µM.

Values taken from ChEMBL document CHEMBL1143483, “A new antitumor compound from the plant Oryctanthus sp. as a VEGF receptor binding inhibitor” (Bioorg Med Chem Lett, 2005).
